In patent US10221163B2 (priority 2015, dated 2019):
pIC50: −log10 of the molar value. Like-named read-outs stand apart in the source and are kept apart here.

Assays:
[1] = molecular target: VIM-1 (Pseudomonas aeruginosa (strain ATCC 15692 / DSM 22644 / CIP 104116 / JCM 14847 / LMG 12228 / 1C / PRS 101 / PAO1), UniProt A0A0F7KYQ8); experiment: biochemical; settings: CCF2-FA substrate, 30 pM enzyme, 2 hours at 25° C.
Outline: (§1)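 Inhibitor was mixed with the metallo-β-lactamase and CCF2-FA. After 2 hours at 25° C, fluorescence of the coumarin–fluorescein cephalosporin substrate was read. IC50 was calculated with a 4-parameter fit.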

[2] = molecular target: NDM-1 (Klebsiella pneumoniae, UniProt C7C422); experiment: biochemical; assay type: biochemical; settings: fluorescence assay, CCF2-FA substrate, 1 pM enzyme, 2 hours at 25° C.; read-out: NDM-1 IC50
Outline: as §1

[3] = molecular target: IMP-1 (Serratia marcescens, UniProt P52699); experiment: biochemical; assay type: biochemical; settings: fluorescence assay, CCF2-FA substrate, 2 pM enzyme, 2 hours at 25° C.; read-out: IMP-1 IC50
Outline: as §1

[4] = test system: Pseudomonas aeruginosa MB9798 vs MB9799; settings: ratio MITC95 PA_9798/MITC95 PA_9799
Outline: (§2)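 P. aeruginosa PAO1-derived IMP-1 strains, efflux+ MB9798 and efflux− MB9799, tested by standard microbroth MIC with imipenem and/or ceftazidime fixed, usually at CLSI breakpoint, plus fixed class A/C β-lactamase inhibitor against AmpC. Inhibitor titrated; concentration restoring susceptibility recorded; MB9798/MB9799 fold difference indicates efflux.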

[5] = test system: Pseudomonas aeruginosa efflux− (MB9799), IMP-1; assay type: cell-based; settings: concentration restoring susceptibility to imipenem at 2 μg/mL in the presence of a class A, C, D serine β-lactamase inhibitor closely related to relebactam
Outline: as §2

[6] = test system: Serratia marcescens expressing IMP-1 (CL5741); assay type: cell-based; settings: IMP-1 strain CL5741, with imipenem 1 μg/ml, 95% inhibition of growth
Outline: (§3)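 Clinical isolates (E. coli NDM-1, S. marcescens IMP-1, K. pneumoniae VIM-1) were diluted 1:100 from saline suspension into 1.1×CAMHB and exposed to test compound with imipenem at 1 μg/ml. Plates were incubated at 35° C for 22 hours to 24 hours, and growth was read by absorbance.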

[7] = test system: Klebsiella pneumoniae expressing VIM-1 (IHMA599644); assay type: cell-based; settings: VIM-1 strain IHMA599644, with imipenem 1 μg/ml, 95% inhibition of growth
Outline: as §3

[8] = test system: Escherichia coli expressing NDM-1 (CLB30005, CLB30016); assay type: cell-based; settings: NDM-1 strain, with imipenem 1 μg/ml, 95% inhibition of growth
Outline: as §3

[9] = test system: Pseudomonas aeruginosa efflux+ (MB9798), IMP-1; assay type: cell-based; settings: concentration restoring susceptibility to imipenem at 2 μg/mL in the presence of a class A, C, D serine β-lactamase inhibitor closely related to relebactam
Outline: as §2

[10] = fluorescence assay, read-out: VIM-1 IC50

Chain of NDM-1 (C7C422 whole entry, looked up, species assumed): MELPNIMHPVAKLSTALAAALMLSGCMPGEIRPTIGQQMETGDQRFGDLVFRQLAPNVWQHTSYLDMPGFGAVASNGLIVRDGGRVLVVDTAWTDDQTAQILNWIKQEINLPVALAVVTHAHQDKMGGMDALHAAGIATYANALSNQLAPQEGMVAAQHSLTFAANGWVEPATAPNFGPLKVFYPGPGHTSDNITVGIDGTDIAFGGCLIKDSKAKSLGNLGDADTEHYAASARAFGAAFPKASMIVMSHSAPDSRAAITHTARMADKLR
Chain of IMP-1 (P52699 whole entry, looked up, species assumed): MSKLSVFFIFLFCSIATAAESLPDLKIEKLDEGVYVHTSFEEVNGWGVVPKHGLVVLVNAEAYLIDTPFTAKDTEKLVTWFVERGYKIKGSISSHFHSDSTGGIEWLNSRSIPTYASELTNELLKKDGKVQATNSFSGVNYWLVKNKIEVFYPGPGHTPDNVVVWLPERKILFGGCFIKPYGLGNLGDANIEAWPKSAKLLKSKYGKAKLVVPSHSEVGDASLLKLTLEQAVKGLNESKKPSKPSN

Row | SMILES | pIC50 [1, 10] | pIC50 [2] | pIC50 [3] | Efflux ratio [4] | P. aeruginosa expressing IMP-1, efflux − (MB9799) MITC95 [5] [µM] | Serratia marcescens MITC95 [6] [µM] | Klebsiella pneumoniae MITC95 [7] [µM] | Escherichia coli MITC95 [8] [µM] | P. aeruginosa expressing IMP-1, efflux + (MB9798) MITC95 [9] [µM] | pIC50 ([1]; VIM-1 IC50, fluorescence assay)
1 | NC[C@H](O)CNS(=O)(=O)c1ccc(-c2cccc3[nH]cnc23)c(-c2nn[nH]n2)c1S(N)(=O)=O [Example 307, (S)-4-(1H-benzo[d]imidazol-4-yl)-N1-(3-amino-2-hydroxypropyl)-3-(2H-tetrazol-5-yl)-benzene-1,2-disulfonamide] | 9.95 | 10.47 | 9.59 | 1.00 | 0.7813 | 1.563 | 1.563 | 1.563 | 0.7813 | 
2 | Cn1c(N)nc2c(-c3ccc(S(=O)(=O)NC[C@@H](O)CN)c(S(N)(=O)=O)c3-c3nn[nH]n3)cccc21 [Example 308, (S)-4-(2-amino-1-methyl-1H-benzo[d]imidazol-4-yl)-N1-(3-amino-2-hydroxypropyl)-3-(2H-tetrazol-5-yl)benzene-1,2-disulfonamide] |  | 10.21 | 9.39 | 1.00 | 0.7813 | 0.7813 | 1.563 | 0.3906 | 0.7813 | 9.75
3 | NC[C@H](O)CNS(=O)(=O)c1ccc(-c2ccc(N)nc2)c(-c2nn[nH]n2)c1S(N)(=O)=O [Example 309, (S)-N1-(3-amino-2-hydroxypropyl)-4-(6-aminopyridin-3-yl)-3-(2H-tetrazol-5-yl)benzene-1,2-disulfonamide] |  | 9.70 | 9.30 | 1.00 | 0.7813 | 0.5208 | 1.563 | 0.2279 | 0.7813 | 9.70
4 | Nc1nc2c(-c3ccc(S(=O)(=O)NC[C@@H]4CNCCN4)c(S(N)(=O)=O)c3-c3nn[nH]n3)cccc2[nH]1 [Example 310, (S)-4-(2-amino-1H-benzo[d]imidazol-4-yl)-N1-(piperazin-2-ylmethyl)-3-(2H-tetrazol-5-yl)benzene-1,2-disulfonamide] | 9.77 | 10.28 | 9.18 | 1.00 | 0.7813 | 0.7813 | 1.563 | 0.7813 | 0.7813 | 
5 | Nc1ccc(-c2ccc(S(=O)(=O)NC[C@@H]3CNCCN3)c(S(N)(=O)=O)c2-c2nn[nH]n2)cn1 [Example 312, (S)-4-(6-aminopyridin-3-yl)-N1-(piperazin-2-ylmethyl)-3-(2H-tetrazol-5-yl)benzene-1,2-disulfonamide] |  | 9.67 | 9.23 | 1.00 | 1.563 | 0.7813 | 3.125 | 0.3906 | 1.563 | 9.55
6 | Nc1ncccc1-c1ccc(S(=O)(=O)NC[C@@H]2CNCCN2)c(S(N)(=O)=O)c1-c1nn[nH]n1 [Example 313, (S)-4-(2-aminopyridin-3-yl)-N1-(piperazin-2-ylmethyl)-3-(2H-tetrazol-5-yl)benzene-1,2-disulfonamide] |  | 10.09 | 8.89 | 2.00 | 1.563 | 0.7813 | 3.125 | 0.3906 | 3.125 | 9.83
7 | Nc1nc2c(-c3ccc(S(=O)(=O)NC[C@H]4CNCCN4)c(S(N)(=O)=O)c3-c3nn[nH]n3)cccc2[nH]1 [Example 314, (R)-4-(2-amino-1H-benzo[d]imidazol-4-yl)-N1-(piperazin-2-ylmethyl)-3-(2H-tetrazol-5-yl)benzene-1,2-disulfonamide] | 9.94 | 10.49 | 9.31 | 1.00 | 0.7813 | 1.563 | 1.563 | 0.7813 | 0.7813 | 
8 | Nc1ccc(-c2ccc(S(=O)(=O)NC[C@H]3CNCCN3)c(S(N)(=O)=O)c2-c2nn[nH]n2)cn1 [Example 315, (R)-4-(6-aminopyridin-3-yl)-N1-(piperazin-2-ylmethyl)-3-(1H-tetrazol-5-yl)benzene-1,2-disulfonamide] |  | 9.77 | 9.34 | 1.00 | 1.563 | 0.7813 | 6.25 | 0.3906 | 1.563 | 9.68
9 | Nc1ncccc1-c1ccc(S(=O)(=O)NC[C@H]2CNCCN2)c(S(N)(=O)=O)c1-c1nn[nH]n1 [Example 316, (R)-4-(2-aminopyridin-3-yl)-N1-(piperazin-2-ylmethyl)-3-(1H-tetrazol-5-yl)benzene-1,2-disulfonamide] |  | 9.76 | 8.63 | 2.00 | 1.563 | 0.7813 | 6.25 | 0.3906 | 3.125 | 9.67
10 | C[C@H](CN)NS(=O)(=O)c1ccc(-c2ccnc(N)c2)c(-c2nn[nH]n2)c1S(N)(=O)=O [Example 317, (R)—N1-(1-aminopropan-2-yl)-4-(2-aminopyridin-4-yl)-3-(2H -tetrazol-5-yl) benzene-1,2-disulfonamide] | 9.88 | 9.77 | 9.31 | 0.50 | 3.125 | 1.563 | 3.125 | 0.7813 | 1.563 | 
11 | C[C@H](CN)NS(=O)(=O)c1ccc(-c2cccc(N)n2)c(-c2nn[nH]n2)c1S(N)(=O)=O [Example 318, (R)—N1-(1-aminopropan-2-yl)-4-(6-aminopyridin-2-yl)-3-(2H-tetrazol-5-yl) benzene-1,2-disulfonamide] |  | 9.80 | 9.15 | 1.00 | 1.563 | 3.125 | 3.125 | 0.7813 | 1.563 | 9.85
12 | Nc1ccc2cccc(-c3ccc(S(=O)(=O)N[C@@H]4CNC[C@@H]4N)c(S(N)(=O)=O)c3-c3nn[nH]n3)c2n1 [Example 319, N^1-((3R,4S)-4-aminopyrrolidin-3-yl)-4-(2-aminoquinolin-8-yl)-3-(2H-tetrazol-5-yl)benzene-1,2-disulfonamide] | 9.69 | 10.32 | 9.58 | 1.00 | 0.7813 | 1.563 | 1.563 | 1.563 | 0.7813 | 
13 | N[C@H]1CNC[C@H]1NS(=O)(=O)c1ccc(-c2cnc3cc[nH]c3c2)c(-c2nn[nH]n2)c1S(N)(=O)=O [Example 320] |  | 10.04 | 8.92 | 2.00 | 0.7813 | 0.7813 | 3.125 | 0.7813 | 1.563 | 9.53
